Results as given in PubChem BioAssay (NCI).
“And” between values parts separate entries of the source, which are not always exact repeats. Equal entries are not always repeated.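 Cells were grown in 96-well plates and exposed to each compound for 48 hours at five concentrations; endpoints were interpolated linearly between bracketing concentrations, or set to the highest concentration if not reached. The concentration for 50% growth inhibition is given as GI50. TGI: total growth inhibition.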

Tests used:
Test in all cases: NCI anticancer screen, dose series, 48 h
[1] = tested on: NCI/ADR-RES ovarian
[2] = tested on: MCF7 breast
[3] = tested on: BT-549 breast
[4] = tested on: HS 578T breast
[5] = tested on: DMS 114 small cell lung
[6] = tested on: DMS 273 small cell lung
[7] = tested on: M19-MEL melanoma
[8] = tested on: LXFL 529 NSCLC
[9] = tested on: DLD-1 colon
[10] = tested on: HOP-18 NSCLC

## COc1ccc(-n2cc(-c3cc(OC)c(OC)c(OC)c3)nc2SCc2ccc(Cl)cc2)cc1OC
[1]
  GI50: 81.6 µM
  TGI: > 100 µM
[2]
  GI50: 92.6 µM
  TGI: > 100 µM
[3]
  GI50: > 100 µM
  TGI: > 100 µM
[4]
  GI50: 66.5 µM
  TGI: > 100 µM

## O=CC(OC(=O)c1ccccc1)C(OC(=O)c1ccccc1)C(COC(c1ccccc1)(c1ccccc1)c1ccccc1)OC(=O)c1ccccc1 (stereo not given)
[1]
  GI50: 19.3 µM
  TGI: 45.4 µM
[2]
  GI50: 6.38 µM
  TGI: 23.7 µM
[3]
  GI50: 23.4 µM
  TGI: > 100 µM
[4]
  GI50: 33.2 µM
  TGI: > 100 µM

## Oc1ccc(NC(=S)Nc2ccccc2)cc1
[1]
  GI50: > 100 µM
  TGI: > 100 µM
[2]
  GI50: > 100 µM
  TGI: > 100 µM
[3]
  GI50: > 100 µM
  TGI: > 100 µM
[4]
  GI50: > 100 µM
  TGI: > 100 µM

## CCN(C(=O)N1CCN(c2cc3c(cc2F)c(=O)c(C(=O)O)cn3C2CC2)CC1)c1nc(-c2ccccc2)cs1
[1]
  GI50: 2.88 µM
  TGI: > 100 µM
[2]
  GI50: 3.15 µM
  TGI: > 100 µM
[3]
  GI50: 2.27 µM
  TGI: 7.91 µM
[4]
  GI50: 3.16 µM
  TGI: 25.9 µM

## CCN(CC)CCNc1c2ccccc2nc2cccc([N+](=O)[O-])c12
[1]
  TGI: 0.034 µM
[5]
  GI50: 0.0117 µM
  TGI: 0.0935 µM and 0.0335 µM
[6]
  TGI: 0.0787 µM
[7]
  GI50: 0.0156 µM
  TGI: 0.0409 µM
[8]
  TGI: 0.0843 µM
[2]
  TGI: 0.0063 µM
[3]
  TGI: 0.0187 µM
[4]
  TGI: 0.039 µM

## C=CC(=O)N[C@@H]1CN(c2nc(Nc3cn(C)nc3OC)c3ncn(C)c3n2)C[C@H]1F
[1]
  GI50: > 100 µM
  TGI: > 100 µM
[2]
  GI50: 17.7 µM
  TGI: > 100 µM
[3]
  GI50: 28.6 µM
  TGI: > 100 µM
[4]
  GI50: 34 µM
  TGI: > 100 µM

## CC(=O)OCCOCn1c2ccccc2c2c3c(c4c5ccccc5n(COCCOC(C)=O)c4c21)C(=O)N(Cc1ccccc1)C3=O
[9]
  TGI: > 100 µM
[6]
  TGI: > 100 µM
[7]
  TGI: > 100 µM
[8]
  TGI: > 100 µM

## Cc1ccc2nc(NC(=O)C(=O)C(C(=O)c3ccc4ccccc4c3)C3OC(=O)c4ccccc43)sc2c1 (stereo not given)
[9]
  TGI: 32.7 µM
[5]
  TGI: 29.3 µM
[7]
  TGI: 32.6 µM
[8]
  TGI: 19.2 µM

## CC(=O)NNc1nc(C)c(C(=O)NNC(=O)C(=O)Nc2ccc(Cl)c([N+](=O)[O-])c2)s1
[5]
  TGI: > 100 µM
[7]
  TGI: > 100 µM
[8]
  TGI: > 100 µM

## C=C1CCC2CC1C(C(=O)c1c[nH]c3ccccc13)=NC2(C)C (stereo not given)
[1]
  TGI: > 100 µM
[2]
  TGI: > 100 µM
[3]
  TGI: > 100 µM
[4]
  TGI: > 100 µM

## Cc1cc(F)c(C(=O)Nc2cccc(-c3nncn3C(C)C)n2)cc1-n1cnc(C2CC2)c1
[1]
  GI50: 17.7 µM
  TGI: 93.2 µM
[2]
  GI50: 9.48 µM
  TGI: 55.2 µM
[3]
  GI50: 11.7 µM
  TGI: 54.8 µM
[4]
  GI50: 26.6 µM
  TGI: > 100 µM

## CCOC(=O)c1oc2c(OC)ccc3c2c1CCC3
[9]
  TGI: > 100 µM
[5]
  TGI: > 100 µM
[6]
  TGI: > 100 µM
[7]
  TGI: > 100 µM
[8]
  TGI: > 100 µM

## Clc1ccc(-c2cc(-c3ccccc3)nc(N3CCN(CCCNc4ccnc5cc(Cl)ccc45)CC3)n2)cc1
[1]
  GI50: 1.75 µM
  TGI: 3.53 µM
[2]
  GI50: 1.63 µM
  TGI: 3.81 µM
[3]
  GI50: 1.68 µM
  TGI: 3.23 µM
[4]
  GI50: 1.86 µM
  TGI: 4.38 µM

## CCCCCC/C=C/C#CCCCCCCCC(=O)O
[1]
  TGI: > 100 µM
[2]
  TGI: > 100 µM
[3]
  TGI: > 100 µM
[4]
  TGI: > 100 µM

## O=C1/C(=C/c2cccnc2)SC(=S)N1Cc1ccco1
[1]
  TGI: > 100 µM
[2]
  TGI: > 100 µM
[3]
  TGI: > 100 µM
[4]
  TGI: > 22.1 µM

## CC(Oc1cc2oc(=O)cc(-c3ccccc3)c2cc1Cl)C(=O)O (stereo not given)
[9]
  TGI: > 100 µM
[5]
  TGI: > 100 µM
[7]
  TGI: > 100 µM
[10]
  TGI: > 100 µM
[8]
  TGI: > 100 µM

## NCCOc1ccc(/C(=C(/Cl)c2ccccc2)c2ccccc2)cc1
[9]
  TGI: 33.3 µM
[5]
  TGI: 27.1 µM
[6]
  TGI: 25.5 µM
[7]
  TGI: 23.8 µM
[8]
  TGI: 20 µM

## Cc1ccc2c(c1)[n+](=O)c(C(=O)c1cccs1)c(C(F)(F)F)n2[O-]
[1]
  GI50: 1.14 µM and 0.524 µM
  TGI: 10.3 µM and 10.1 µM
[2]
  GI50: 0.875 µM and 0.456 µM
  TGI: 3.79 µM and 21.5 µM
[3]
  GI50: 0.603 µM
  TGI: 1.97 µM

## Oc1ccc2ccccc2c1CCc1c(O)ccc2ccccc12
[1]
  TGI: 31.1 µM
[2]
  TGI: 26.3 µM
[4]
  TGI: 45.1 µM

## COc1ccc(C(=O)/C=C/c2sc(Cl)nc2Cl)cc1
[1]
  GI50: 2.55 µM
  TGI: 10.2 µM
[2]
  GI50: 1.75 µM
  TGI: 4 µM
[3]
  GI50: 0.332 µM
  TGI: 1.7 µM
[4]
  GI50: 3.29 µM
  TGI: 18.6 µM

## C[C@@H]1CC[C@H]2[C@@H](C)C(O)O[C@@H]3O[C@]4(C)CC[C@@H]1[C@]32OO4 (stereo not given in full)
[1]
  GI50: 0.581 µM
  TGI: 12 µM
[2]
  GI50: 1.66 µM
  TGI: 20.4 µM
[3]
  GI50: 0.721 µM
  TGI: 45.4 µM
[4]
  GI50: 1.33 µM
  TGI: 42.2 µM

## C[C@H]1CCC/C=C/C2CC(OC(=O)CN(C)C)CC2C(OC(=O)CN(C)C)/C=C/C(=O)O1 (stereo not given in full)
[9]
  GI50: 0.443 µM
  TGI: > 37.1 µM
[5]
  GI50: 0.479 µM
  TGI: > 30.2 µM
[6]
  GI50: 3.77 µM
  TGI: 27.7 µM
[7]
  GI50: 0.0406 µM
  TGI: 0.211 µM
[8]
  GI50: 0.417 µM
  TGI: 8.4 µM
[2]
  GI50: 0.31 µM
  TGI: 1.53 µM
[3]
  GI50: 0.459 µM
  TGI: 74.9 µM
[4]
  GI50: 30.1 µM
  TGI: > 100 µM

## CN1CCN(CCCOc2cccc3nc(Nc4cc(Cl)cc(Cl)c4)ccc23)CC1
[1]
  GI50: 1.72 µM
  TGI: 3.29 µM
[2]
  GI50: 1.38 µM
  TGI: 2.94 µM
[3]
  GI50: 3.43 µM
  TGI: 13.9 µM
[4]
  GI50: 2.5 µM
  TGI: 7.07 µM

## Nc1n[n+]([O-])c2cc([N+](=O)[O-])ccc2[n+]1[O-]
[1]
  TGI: 32.8 µM
[2]
  TGI: 11.7 µM
[3]
  TGI: 32 µM
[4]
  TGI: 44 µM

## CC(C)N(C(=O)C12C3C4C1C1C2C3C41C(=O)C(C)(C)C)C(C)C (stereo not given)
[9]
  TGI: > 100 µM
[5]
  TGI: > 100 µM
[6]
  TGI: > 100 µM
[7]
  TGI: > 100 µM
[8]
  TGI: > 100 µM

## C[C@@H](C1CC[C@H]2[C@@H]3[C@@H]4O[C@@H]4[C@@]4(O)CC=CC(=O)[C@]4(C)[C@H]3C[C@H](O)[C@]12C)[C@H]1C[C@]2(C)O[C@]2(C)C(=O)O1 (stereo not given in full)
[1]
  TGI: > 100 µM
[2]
  TGI: > 100 µM
[4]
  TGI: > 100 µM

## OCC1NC(COC2OC(CO)C(O)C(O)C2O)C(O)C(O)C1O (stereo not given)
[1]
  TGI: > 100 µM
[2]
  TGI: > 100 µM
[3]
  TGI: > 100 µM

## Nc1nc(=O)n(C2CC(O)C(CO)O2)cc1F (stereo not given)
[1]
  GI50: 0.107 µM
  TGI: > 100 µM
[2]
  GI50: 0.00235 µM
  TGI: > 100 µM
[3]
  TGI: > 100 µM
[4]
  GI50: 55.2 µM
  TGI: > 100 µM
